Measurements from patent US12472185B2, “Methods for killing antibiotic tolerant bacteria” (THE PENN STATE RESEARCH FOUNDATION, priority 2020, dated 2025).

Key:
[1] = tested on: S. aureus; assay: LIVE/DEAD staining; type: cell-based, Staphylococcus aureus; details: 100 μM, 1 hr
Procedure: (§1) FIG. 4. NPIMA lyses Escherichia coli, Pseudomonas aeruginosa, and Staphylococcus aureus. LIVE/DEAD staining of (a) E. coli BW25113 after 0.75 hr, (b) P. aeruginosa PA14 after 1 hr, and (c) S. aureus after 1 hr treatment with NPIMA at 100 μM. […] White arrows indicate lysed cells. Representative images are shown. Scale bar=[…]. NPIMA, 5-nitro-3-phenyl-1H-indol-2-ylmethylamine hydrochloride.
(§2) Cell viability after treating with NPIMA was determined using the using the LIVE/DEAD BacLight Bacterial Viability Kit (catalog number, L7012; Molecular Probes, Inc., Eugene, OR). The fluorescence signal was analyzed via a Zeiss Axioscope.A1 using excitation at 485 nm and emission at 530 nm for green fluorescence and using excitation at 485 nm and emission at 630 nm for red fluorescence.

[2] = tested on: P. aeruginosa PA14; assay: LIVE/DEAD staining; type: cell-based, Pseudomonas aeruginosa; details: 100 μM, 1 hr
Procedure: as §1, §2

[3] = tested on: P. aeruginosa; assay: Lysis assays (total protein and DNA in supernatants); type: cell-based, Pseudomonas aeruginosa; details: 100 μM, 1 hr
Procedure: FIG. 5. NPIMA lyses Escherichia coli, Pseudomonas aeruginosa, and Staphylococcus aureus. Total protein (a) and DNA (b) found in supernatants as evidence of cell lysis after treatment of cells at a turbidity of 0.8 at 600 nm with 100 μM NPIMA after 1 hr for E. coli and P. aeruginosa and 6 hr for S. aureus. NPIMA, 5-nitro-3-phenyl-1H-indol-2-yl-methylamine hydrochloride.
Exponentially-growing E. coli BW25113 cells (turbidity 0.8 at 600 nm) were washed twice with 0.85% NaCl, resuspended in 1 ml of 1×PBS, and NPIMA (100 μM) was added for 1 hr for E. coli and P. aeruginosa and 6 hr for S. aureus with shaking at 250 rpm (0.1% DMSO was used as the negative control). Cell supernatants were collected after centrifuging at 6,500 g (4° C. for 15 min), and total protein was measured by the Bicinchoninic Acid (BCA) protein assay Kit (Prod #23227; Pierce). DNA in the supernatant (199 μl) was detected by adding 1 μl of Picogreen (P7589; Invitrogen) and incubating for 5 min at room temperature in the dark room. The fluorescence signal was read by a Tecan microplate reader (Infinite M200PRO) with 480 nm excitation and 520 nm emission by utilizing a calibration curved made with plasmid pEX18Ap at 0, 0.004, 0.008, 0.016, 0.063, 0.125, 0.25, and 0.5 ng/μl.

[4] = tested on: E. coli BW25113; assay: Transmission electron microscopy (TEM); type: cell-based, Escherichia coli; details: 100 μM
Procedure: FIG. 6. NPIMA damages the Escherichia coli cell membrane. Transmission electron microscopic (TEM) images of E. coli BW25113 after NPIMA (100 μM) treatment for 40 min. Two representative images are shown. The arrow indicates membrane damage. NPIMA, 5-nitro-3-phenyl-1H-indol-2-ylmethylamine hydrochloride.
For transmission electron microscopy (TEM), E. coli BW25113 was grown to a turbidity of 0.8 at OD600, contacted with NPIMA at 100 μM for 0.75 hr in PBS, centrifuged at 8000 g, and resuspended in PBS. The samples were fixed with buffer (2.5% glutaraldehyde in 0.1M cacodylate buffer, pH 7.4) and negative stained with 2% uranyl acetate in the dark for 1 hr, then dehydrated. The sectioned specimens were stained again with uranyl acetate and lead citrate after dehydration and resin embedded. TEM images were obtained using a JEOL JEM 1200 EXII instrument.

[5] = tested on: P. aeruginosa PA14 exponentially-growing cells; assay: Killing at one MIC in PBS, NPIMA compared with cisplatin; type: cell-based, Pseudomonas aeruginosa; details: 3 hr
Source text: FIG. 7. NPIMA compared width cisplatin for killing Pseudomonas aeruginosa, Escherichia coli, and Staphylococcus aureus. Survival of exponentially-growing cells of P. aeruginosa PA14 (a), E. coli (b), and S. aureus (c) treated with one MIC of NPIMA (♦) and cisplatin (●) for 3 hr in PBS. DMSO (▴) and NaClO4 (*) were used as a negative controls. MIC, minimum inhibitory concentration; NPIMA, 5-nitro-3-phenyl-1H-indol-2-yl-methylamine hydrochloride.
For bacterial viability, cells were washed twice with 0.85% NaCl, resuspended in 1×PBS, and cell counts were determined via the drop assay (Donegan, Matyac, Seidler, & Porteous, 1991). For human cell viability, pre-cultured human cancer HT-29 cells were dispensed in 98 μl in 96-well plates with approximately 5,000 cells/well. NPIMA was added (2 μl) to produce concentrations of 5, 10, 100, and 200 μM. For controls, Triton X-100 (positive control) and DMSO (negative solvent control), were used, and the medium was used for background. Plates were incubated in a humidified incubator (37° C., 5% CO2) for 24 hr. Cell viability was determined via a cell counting kit (CCK-8 Kit, ab228554; Abcam), and cytotoxicity was determined via the lactate dehydrogenase (LDH) assay (LDH Assay Kit, MK401; Takara).

## Cl.NCc1[nH]c2ccc([N+](=O)[O-])cc2c1-c1ccccc1 [NPIMA, [(5-nitro-3-phenyl-1H-indol-2-yl)methyl]amine hydrochloride]
[1]
  cells killed (LIVE/DEAD): 27%
[2]
  cell lysis seen by LIVE/DEAD staining (extracellular DNA): lysed
  cells killed (LIVE/DEAD): 100%
[3]
  increase in DNA released compared to DMSO alone: 1.19±0.09 fold
  total protein released compared to DMSO alone: 4.0±0.4 fold
[4]
  cell envelope damage by TEM: clear cell envelope damage
[5]
  effectiveness relative to cisplatin: less effective
